In publication PMC12118597 (Science Advances, 2025):
pIC50, pKi: −log10 of the molar value.

target: T1, SARS-CoV-2 NSP3 macrodomain (Mac1) (Severe acute respiratory syndrome coronavirus 2, UniProt P0DTD1); assay: biochemical; format: binding; settings: SARS CoV-2 macrodomain HTRF assay

| SMILES | pKi | Ligand efficiency (binding enery per heavy atom) |
| --- | --- | --- |
| O[C@H]1CC[C@H]2CCN(c3ncnc4[nH]ccc34)[C@H]21 [AVI-5997] | 4.47 | 0.34 |
| CCC(CC)(CO)Nc1ncnc2[nH]ccc12 [AVI-3695] | 4.43 | 0.36 |
| CC1CCC(O)(CNc2ncnc3[nH]ccc23)CC1 (stereo not drawn) [AVI-4312] | 4.70 | 0.34 |
| CC1(C)CCN(c2ncnc3[nH]ccc23)C(CO)C1 (stereo not drawn) [AVI-5994] | 4.20 | 0.31 |
| O=C(O)C(F)(F)F.OCC1(Nc2ncnc3[nH]ccc23)CCCC1 [AVI-3692] | 4.34 | 0.35 |
| O=C(O)C(F)(F)F.OC1([C@H]2CCCN2c2ncnc3[nH]ccc23)Cc2ccccc2C1 [AVI-3731] | 5.47 | 0.31 |
| OCC(Nc1ncnc2[nH]ccc12)C1CC1 (stereo not drawn) [AVI-3651] | 4.35 | 0.38 |

same assay, conditions: SARS CoV-2 macrodomain HTRF assay, dose-response; read-out: IC50

| SMILES | pIC50 |
| --- | --- |
| O[C@H]1CC[C@H]2CCN(c3ncnc4[nH]ccc34)[C@H]21 [AVI-5997] | 4.43 |
| CCC(CC)(CO)Nc1ncnc2[nH]ccc12 [AVI-3695] | 4.40 |
| CC1CCC(O)(CNc2ncnc3[nH]ccc23)CC1 (stereo not drawn) [AVI-4312] | 4.68 |
| CC1(C)CCN(c2ncnc3[nH]ccc23)C(CO)C1 (stereo not drawn) [AVI-5994] | 4.17 |
| O=C(O)C(F)(F)F.OCC1(Nc2ncnc3[nH]ccc23)CCCC1 [AVI-3692] | 4.31 |
| OCC(Nc1ncnc2[nH]ccc12)C1CC1 (stereo not drawn) [AVI-3651] | 4.32 |

same assay, conditions: SARS CoV-2 macrodomain HTRF assay, single dose concentration 200 μM

| SMILES | Average % competition [%] |
| --- | --- |
| OC1CCCN(c2ncnc3[nH]ccc23)C1 (stereo not drawn) [AVI-3646] | 20 |
| CCC1(O)CCN(c2ncnc3[nH]ccc23)C1 (stereo not drawn) [AVI-612] | 22 |

same assay, conditions: compound at 200 μM; mean of three to four technical replicates; read-out: % competition at 200 μM (preliminary HTRF screen)

| SMILES | inhibition at 200 µM [%] |
| --- | --- |
| OC1CCCN(c2ncnc3[nH]ccc23)C1 (stereo not drawn) [AVI-3646] | 20 |
| CCC1(O)CCN(c2ncnc3[nH]ccc23)C1 (stereo not drawn) [AVI-612] | 22 |

same assay, conditions: read-out: IC50 (confirmatory HTRF dose-response screen)

| SMILES | pIC50 |
| --- | --- |
| O=C(O)C(F)(F)F.OC1([C@H]2CCCN2c2ncnc3[nH]ccc23)Cc2ccccc2C1 [AVI-3731] | 5.43 |

target: T1, SARS-CoV-2 NSP3 macrodomain (Mac1); assay: not given; format: binding; settings: crystal soak 10 mM; TFA/DMSO background map

| SMILES | PanDDA run, TFA/DMSO background map: 1-BDC | PanDDA run, TFA/DMSO background map: Hit |
| --- | --- | --- |
| OC1CCCN(c2ncnc3[nH]ccc23)C1 (stereo not drawn) [AVI-3646] | 0.13 | TRUE |
| O=C(O)C(F)(F)F.OCC1(Nc2ncnc3[nH]ccc23)CCCC1 [AVI-3692] | 0.11 | TRUE |
| O=C(O)C(F)(F)F.OC1([C@H]2CCCN2c2ncnc3[nH]ccc23)Cc2ccccc2C1 [AVI-3731] | 0.14 | TRUE |
| OCC(Nc1ncnc2[nH]ccc12)C1CC1 (stereo not drawn) [AVI-3651] | 0.16 | TRUE |

same assay, conditions: ligand modeling, Mac1 crystal soak

| SMILES | Number of isomers bound |
| --- | --- |
| OC1CCCN(c2ncnc3[nH]ccc23)C1 (stereo not drawn) [AVI-3646] | 1 |
| CCC1(O)CCN(c2ncnc3[nH]ccc23)C1 (stereo not drawn) [AVI-612] | 1 |
| CCC(CC)(CO)Nc1ncnc2[nH]ccc12 [AVI-3695] | 1 |
| O=C(O)C(F)(F)F.OCC1(Nc2ncnc3[nH]ccc23)CCCC1 [AVI-3692] | 1 |
| O=C(O)C(F)(F)F.OC1([C@H]2CCCN2c2ncnc3[nH]ccc23)Cc2ccccc2C1 [AVI-3731] | 1 |
| OCC(Nc1ncnc2[nH]ccc12)C1CC1 (stereo not drawn) [AVI-3651] | 1 |

same assay, conditions: stereoisomer(s)/conformations of the soaked ligand modeled in the Mac1 crystal structure

| SMILES | Isomers modeled |
| --- | --- |
| O[C@H]1CC[C@H]2CCN(c3ncnc4[nH]ccc34)[C@H]21 [AVI-5997] | SSR |
| CC1CCC(O)(CNc2ncnc3[nH]ccc23)CC1 (stereo not drawn) [AVI-4312] | rr |
| CC1(C)CCN(c2ncnc3[nH]ccc23)C(CO)C1 (stereo not drawn) [AVI-5994] | S,S |
